Test results published in paper PMC2957182 (Molecular and cellular endocrinology, 2010).

Tests used:
Akt = details: HNMPA-(AM3) 500 μM, ILP3 10 pmol or ILP4 20 pmol, 2 h, immunoblot
ovaries = details: bovine insulin; ref Riehle and Brown, 1999; cited from earlier work

Compound | Akt phosphorylation in ovaries with ILPs plus HNMPA-(AM3) (Akt) | Ecdysteroid production by ovaries (ovaries)
CC(=O)OCOC(c1ccc2ccccc2c1)P(=O)(OCOC(C)=O)OCOC(C)=O (centres unmarked) [HNMPA-(AM3)] | no change in phosphorylation | –
bovine insulin: bovine insulin | – | stimulates ecdysteroid production
